Measurements as given in patent US20100048640A1, “HYDRAZIDE COMPOUND AND HARMFUL ARTHROPOD-CONTROLLING AGENT CONTAINING THE SAME” (Sumitomo Chemical Company, Limited, priority 2007, published 2010).

Key:
Type in all cases: in vivo
[1] = tested on: common cutworm (Spodoptera litura); experiment: Test Example 3: cabbage foliar spray, common cutworm larvae, controlling value; settings: 96 h, flowable formulation, 20 mL/cup on cabbage, fourth-instar larvae, after 4 days; for pest or weed control at 500 ppm: 500 ppm active ingredient; for pest or weed control at 200 ppm: 200 ppm active ingredient
Experimental: Thus, test spray solutions were prepared. On the other hand, cabbage was planted in a polyethylene cup, and grown until the third true leaf or the fourth true leaf was developed. The test spray solution as described above was sprayed in an amount of 20 mL/cup on the cabbage. After the spray solution sprayed on the cabbage was dried, 10 fourth-instar larvae of common cutworm (Spodoptera litura) were placed on the cabbage. After 4 days, the number of common cutworm surviving on the cabbage leaves was counted, and a controlling value was calculated by the following equation. Controlling value(%)={1−(Cb×Tai)/(Cai×Tb))×100

[2] = tested on: summer fruit tortrix (Adoxophyes orana fasciata); experiment: Test Example 4: apple seedling spray, summer fruit tortrix larvae, controlling value; settings: 168 h, flowable formulation, 20 mL on apple seedling, first-instar larvae, seven days after spraying; for pest or weed control at 500 ppm: 500 ppm active ingredient; for pest or weed control at 200 ppm: 200 ppm active ingredient
Experimental: Thus, test spray solutions were prepared. On the other hand, 20 mL of the test spray solution as described above was sprayed to an apple seedling (28 day-old seeding; tree height: about 15 cm) planted in a plastic cup. The apple seedling was air-dried to such an extent that the spray solution sprayed on the apple seedling was dried, and about 30 first-instar larvae of summer fruit tortrix (Adoxophyes orana fasciata) were released. Seven days after spraying, the number of worms surviving on the apple seedling was counted, and a controlling value was calculated by the following equation. Controlling value(%)={1−(Cb×Tai)/(Cai×Tb))×100

[3] = tested on: diamondback moths (Plutella xylostella); experiment: Test Example 1: cabbage foliar spray, diamondback moth larvae, controlling value; settings: 120 h, flowable formulation, 20 mL/cup on cabbage, third-instar larvae, after 5 days; for pest or weed control at 500 ppm: 500 ppm active ingredient; for pest or weed control at 200 ppm: 200 ppm active ingredient
Experimental: Thus, test spray solutions were prepared. On the other hand, cabbage was planted in a polyethylene cup, and grown until the third true leaf or the fourth true leaf was developed. The test spray solution as described above was sprayed in an amount of 20 mL/cup on the cabbage. After the spray solution on the cabbage was dried, 10 third-instar larvae of diamondback moths (Plutella xylostella) were placed on the cabbage. After 5 days, the number of diamondback moths was counted, and the controlling value was calculated by the following equation. Controlling value(%)={1−(Cb×Tai)/(Cai×Tb))×100 wherein Cb: the number of worms in an untreated group before treatment; Cai: the number of worms in an untreated group on observation; Tb: the number of worms in a treated group before treatment; Tai: the number of worms in a treated group on observation.

[4] = tested on: cotton aphids (Aphis gossypii); experiment: Test Example 2: cucumber foliar spray, cotton aphids, controlling value; settings: 144 h, flowable formulation, 20 mL/cup on cucumber, six days after spraying; for pest or weed control at 500 ppm: 500 ppm active ingredient; for pest or weed control at 200 ppm: 200 ppm active ingredient
Experimental: Thus, test spray solutions were prepared. On the other hand, cucumber was planted in a polyethylene cup, and was grown until the first true leaf was developed. About 30 cotton aphids (Aphis gossypii) were placed on the cucumber. One day after, the test spray solution as described above was sprayed in an amount of 20 mL/cup on the cucumber. Six days after spraying, the number of cotton aphids was counted, and a controlling value was calculated by the following equation. Controlling value(%)={1−(Cb×Tai)/(Cai×Tb))×100

[5] = tested on: yellow citrus thrips (Franklinella occidentalis); experiment: Test Example 5: cucumber leaf spray, yellow citrus thrips larvae, controlling value; settings: 168 h, flowable formulation, 20 mL/cup on cucumber, cut first true leaf, 20 larvae, leaf area damaged, seven days after spraying; for pest or weed control at 500 ppm: 500 ppm active ingredient; for pest or weed control at 200 ppm: 200 ppm active ingredient
Experimental: Thus, test spray solutions were prepared. On the other hand, cucumber was planted in a polyethylene cup, and was grown until the first true leaf was developed. The test spray solution as described above was sprayed in an amount of 20 mL/cup on the cucumber. After the spray solution on the cucumber was dried, the first true leaf was cut and then placed on a filter paper (diameter: 70 mm) containing water in a polyethylene cup (diameter: 110 mm). On the cucumber leaf, 20 larvae of yellow citrus thrips ([…] occidentalis) were released, and the polyethylene cup was capped. Seven days after spraying, the percentage of leaf area damaged by the insect was examined and a controlling value was calculated by the following equation. Controlling value(%)={1-(Cb×Tai)/(Cai×Tb))×100

| SMILES | pest or weed control at 500 ppm [1] | pest or weed control at 500 ppm [2] | pest or weed control at 500 ppm [3] | pest or weed control at 500 ppm [4] | pest or weed control at 500 ppm [5] | pest or weed control at 200 ppm [1] | pest or weed control at 200 ppm [2] | pest or weed control at 200 ppm [3] | pest or weed control at 200 ppm [4] | pest or weed control at 200 ppm [5] |
| --- | --- | --- | --- | --- | --- | --- | --- | --- | --- | --- |
| CCN(C(=O)c1cc(Br)cc(Br)c1NC(=O)c1cc(Br)nn1-c1ncccc1Cl)N(CC#N)C(=O)OC [1-1] | ≥ 80% | 100% | 100% | ≥ 90% | 100% | – | – | – | – | – |
| COC(=O)N(NC(=O)c1cc(Br)cc(Br)c1NC(=O)c1cc(Br)nn1-c1ncccc1Cl)c1ccccn1 [1-5] | ≥ 80% | 100% | 100% | ≥ 90% | 100% | – | – | – | – | – |
| COC(=O)N(NC(=O)c1cc(Cl)cc(C)c1NC(=O)c1cc(Br)nn1-c1ncccc1Cl)c1ccccn1 [1-6] | ≥ 80% | 100% | 100% | ≥ 90% | 100% | – | – | – | – | – |
| C=CCN(NC(=O)OC)C(=O)c1cc(Br)cc(Br)c1NC(=O)c1cc(Br)nn1-c1ncccc1Cl [1-7] | ≥ 80% | 100% | 100% | ≥ 90% | 100% | – | – | – | – | – |
| C=CCN(NC(=O)c1cc(Br)cc(Br)c1NC(=O)c1cc(Br)nn1-c1ncccc1Cl)C(=O)OC [1-8] | ≥ 80% | 100% | 100% | ≥ 90% | 100% | – | – | – | – | – |
| C=CCN(NC(=O)OC)C(=O)c1cc(Cl)cc(Cl)c1NC(=O)c1cc(Br)nn1-c1ncccc1Cl [1-9] | ≥ 80% | 100% | 100% | ≥ 90% | 100% | – | – | – | – | – |
| C=CCN(NC(=O)c1cc(Cl)cc(Cl)c1NC(=O)c1cc(Br)nn1-c1ncccc1Cl)C(=O)OC [1-10] | ≥ 80% | 100% | 100% | ≥ 90% | 100% | – | – | – | – | – |
| C=CCN(NC(=O)OC)C(=O)c1cc(Cl)cc(C)c1NC(=O)c1cc(Br)nn1-c1ncccc1Cl [1-11] | – | – | – | – | – | ≥ 80% | 100% | 100% | ≥ 90% | – |
| C=CCN(NC(=O)c1cc(Cl)cc(C)c1NC(=O)c1cc(Br)nn1-c1ncccc1Cl)C(=O)OC [1-12] | ≥ 80% | 100% | 100% | ≥ 90% | 100% | – | – | – | – | – |
| C#CCN(NC(=O)OC)C(=O)c1cc(Br)cc(Br)c1NC(=O)c1cc(Br)nn1-c1ncccc1Cl [1-31] | – | – | – | – | – | ≥ 80% | 100% | 100% | ≥ 90% | 100% |
| C#CCN(NC(=O)c1cc(Br)cc(Br)c1NC(=O)c1cc(Br)nn1-c1ncccc1Cl)C(=O)OC [1-32] | – | – | – | – | – | ≥ 80% | 100% | 100% | ≥ 90% | 100% |
| COC(=O)NN(Cc1ccccc1)C(=O)c1cc(Cl)cc(C)c1NC(=O)c1cc(Br)nn1-c1ncccc1Cl [1-57] | ≥ 80% | – | 100% | ≥ 90% | 100% | – | – | – | – | – |
| COC(=O)N(Cc1ccccc1)NC(=O)c1cc(Cl)cc(C)c1NC(=O)c1cc(Br)nn1-c1ncccc1Cl [1-58] | ≥ 80% | – | 100% | ≥ 90% | 100% | – | – | – | – | – |
| COC(=O)N(NC(=O)c1cc(Br)cc(Br)c1NC(=O)c1cc(Br)nn1-c1ncccc1Cl)C1CCCCC1 [1-59] | ≥ 80% | – | 100% | ≥ 90% | – | – | – | – | – | – |
| COC(=O)N(NC(=O)c1cc(Cl)cc(C)c1NC(=O)c1cc(Br)nn1-c1ncccc1Cl)C1CCCCC1 [1-60] | ≥ 80% | 100% | 100% | – | – | – | – | – | – | – |
| COC(=O)NN(CCO)C(=O)c1cc(Br)cc(Br)c1NC(=O)c1cc(Br)nn1-c1ncccc1Cl [1-61] | ≥ 80% | – | 100% | ≥ 90% | 100% | – | – | – | – | – |
| COC(=O)NN(CC=C(Cl)Cl)C(=O)c1cc(Br)cc(Br)c1NC(=O)c1cc(Br)nn1-c1ncccc1Cl [1-63] | ≥ 80% | 100% | 100% | ≥ 90% | 100% | – | – | – | – | – |
| COC(=O)N(CC=C(Cl)Cl)NC(=O)c1cc(Br)cc(Br)c1NC(=O)c1cc(Br)nn1-c1ncccc1Cl [1-64] | ≥ 80% | 100% | 100% | ≥ 90% | 100% | – | – | – | – | – |
